B1: RAP: Receptor Associated Protein, antagonist of a number of lipoprotein receptors (protein)
chain: YSREKNQPKPSPKRESGEEFRMEKLNQLWEKAQRLHLPPVRLAELHADLKIQERDELAWKKLKLDGLDEDGEKEARLIRNLNVILAKYGLDGKKDARQVTSNSLSGTQEDGLDDPRLEKLWHKAKTSGKFSGEELDKLWREFLHHKEKVHEYNVLLETLSRTEEIHENVISPSDLSDIKGSVLHSRHTELKEKLRSINQGLDRLRRVSHQGYSTEAEFEEPRVIDLWDLAQSANLTDKELEAFREELKHFEAKIEKHNHYQKQLEIAHEKLRHAESVGDGERVSRSREKHALLEGRTKELGYTVKKHLQDLSGRISRARHNEL
B2: Ciliary neurotrophic factor: member of the gp130 family of cytokines regulating survival and differentiation of neurons (protein, UniProt P26441 1-200, looked up)
Ciliary neurotrophic factor: MAFTEHSPLTPHRRDLCSRSIWLARKIRSDLTALTESYVKHQGLNKNINLDSADGMPVASTDQWSELTEAERLQENLQAYRTFHVLLARLLEDQQVHFTPTEGDFHQAIHTLLLQVAAFAYQIEELMILLEYKIPRNEADGMPINVGDGGLFEKKLWGLKVLQELSQWTVRSIHDLRFISSHQTGIPARGSHYIANNKKM

Assays:
[1] = test system: Neuro2a cells stably transfected with hyg-sa134 (SEAP-APP); test: Aβ production by Neuro2a cells stably transfected with hyg-sa134 (total Aβ in media, sandwich ELISA); assay type: cell-based, mouse; conditions: for Aβ production / levels of Aβ in the media (in words): 2 or 5 h treatment; for Aβ production (in words) / Neuro2a/SEAP-APP Aβ(% control): 5 h; for Neuro2a/SEAP-APP Aβ(% control): total Aβ in conditioned media, concentration (TOFA 200 μM, cerulenin 200 μM, etomoxir 40 μM, peptide YY (3-36) 25 μM, CNTF 25 μM, leptin 400 ng/ml), mean ± SEM, 4 experiments, NS = non-significant
Protocol: (§1) Neuro2a (mouse neuroblastoma) stably transfected with hyg-sa134, a pcDNA3.1/Hygro plasmid (Invitrogen, CA) modified to express a fusion protein of secreted alkaline phosphatase (SEAP) and a fragment of APP consisting of the C-terminal 134 amino acids (“CAPP134”) (SEQ ID NO:10) were maintained in culture as described ([…]) in the presence of 400 μg/ml of hygromycin. SEQ ID NO: 11 is the DNA sequence of the entire hygsa134 vector, which was derived from the pcDNA3.1/Hygro vector by genetic manipulation to insert the DNA sequences for SEAP and CAPP134. The SEAP-CAPP cDNA insert from hyg-sa134 was also subcloned into an adenoviral vector using the Adeno Vator system (Qbiogene, Calif.). The DNA sequence for SEAP (corresponding to nucleotides 981-2441 of hyg-sa134) (SEQ ID NO: 9) is located 5′ to the DNA sequence (SEQ ID NO: 12) coding for CAPP134 (SEQ ID NO: 10).
(§2) SY5Y and hyg-sa134-Neuro2a cells were treated at 80% confluency (see below). Primary neural cultures from mouse embryos were allowed to grow for 6-12 days following plating and prior to viral infection and treatments.
About 5 μg/ml or about 10 μg/ml water-soluble cholesterol was added to cultures for 2 or 5 hours. Water soluble cholesterol (Sigma-Aldrich, MO) is a solution made of cholesterol balanced with cyclodextrin CDX (40 mg cholesterol per gr CDX). For comparison, cultures were treated with the equivalent amount of the resin alone, which leads to depletion of cholesterol in the cultures (Simons et al., Proc Natl Acad Sci USA. 95:6460-4 (1998)).
(§3) About 100 ng/ml or about 400 ng/ml leptin (Harbor-UCLA, CA), was added in cell culture medium for 2 or 5 h. Cells were approximately 80% confluent at the time of treatment. Peptide YY (3-36) (Phoenix Pharmaceuticals, Inc., CA), and CNTF (Sigma-Aldrich, Mo.) were added at about 25 μM or 150 μM for the same incubation periods. TOFA, etomoxir (Research Biochemicals International, MA) and cerulenin (Sigma-Aldrich, Mo.) were used as described below.
(§4) For the determination of Aβ peptide several methodologies also were used. SY5Y cells in culture were metabolically labeled with ^35S-[Met] as described (Figueiredo-Pereira et al. J Neurochem. 72:1417-22 (1999)), followed by immunoprecipitation, resolution of the immunoprecipitates on SDS-PAGE, autoradiography, and densitometric analysis of the autoradiogram. Neuro2a cells were stably transfected with hyg-sa134 (K. Sambamurti, S. Carolina Medical Center, SC) and Aβ40 (SEQ ID NO: 4) plus Aβ42 (SEQ ID NO: 5) plus Aβ43 (SEQ ID NO: 6) (Total Aβ) in the medium then was quantified by sandwich ELISAs developed with 4G8 and 6 ε10 monoclonal antibodies (Signet, Mass.) as described (Figueiredo-Pereira et al., J Neurochem. 72:1417-22 (1999)). Commercially available ELISA kits (KMI Diagnostics, MN) were used for the separate determination of Aβ40 (SEQ ID NO:4) and Aβ42/43 (SEQ ID NO:5/SEQ ID NO:6) in formic acid extracts of mice brains. Flotillin was detected using monoclonal anti-flotillin-1 antibodies (BD Biosciences, CA). Actin was detected using monoclonal anti-actin antibodies (Research Diagnostics, Inc, NJ).
Human (SYSY) or mouse neuroblastoma cell-lines (Neuro2a) commonly are used to study amyloid β metabolism in vitro. Neuro2a cells are stably transfected with hyg-sa134 (SEQ ID NO: 11), a plasmid driving the expression of a recombinant fusion protein containing the human C-terminal fragment of APP of about 134 amino acids, CAPP134 (SEQ ID NO: 10). Here, 5Y5Y or Neuro2a cultures were treated for 2 or 5 h with about 100 ng/ml or about 400 ng/ml leptin (FIG. 4a, 4b). Similarly, primary neurons from embryonic rat brain, infected with an adenovirus to direct the expression of CAPP134 (SEQ ID NO:10) also were treated according to the same regimen. […]

[2] = test system: primary embryonic rat neurons infected with adenovirus; test: Aβ production by primary embryonic rat neurons infected with adenovirus (SEAP-APP); assay type: cell-based; conditions: total Aβ in conditioned media, 5 h; concentration (TOFA 200 μM, cerulenin 200 μM, etomoxir 40 μM, peptide YY (3-36) 25 μM, CNTF 25 μM, leptin 400 ng/ml); mean ± SEM; NS = non-significant
Text: (§5) Cell cultures, Treatments, Antibodies and Immunoassays. SY5Y cells (human neuroblastoma) were maintained in culture as described (Johnsingh et al., FEBS Lett. 465:53-8 (2000)). Primary neural cultures were obtained from ε16 rat embryonic cortex, as described (Shimoda et al., 1992. Brain Res. 586:319-31 (1992)). These were either grown as mixed cultures (Johnsingh et al., FEBS Lett. 465:53-8 (2000)) or grown under conditions that favor the isolation and proliferation of astrocytes (Takeshima et al., J Neurosci. 14:4769-79 (1994)).
as §1, §2
(§6) Human (SYSY) or mouse neuroblastoma cell-lines (Neuro2a) commonly are used to study amyloid β metabolism in vitro. Neuro2a cells are stably transfected with hyg-sa134 (SEQ ID NO: 11), a plasmid driving the expression of a recombinant fusion protein containing the human C-terminal fragment of APP of about 134 amino acids, CAPP134 (SEQ ID NO: 10). Here, 5Y5Y or Neuro2a cultures were treated for 2 or 5 h with about 100 ng/ml or about 400 ng/ml leptin (FIG. 4a, 4b). Similarly, primary neurons from embryonic rat brain, infected with an adenovirus to direct the expression of CAPP134 (SEQ ID NO:10) also were treated according to the same regimen.

SY5Y cells [3] = test: Aβ production by SY5Y cells; assay type: cell-based, human; conditions: total Aβ in conditioned media, 5 h; concentration (TOFA 200 μM, cerulenin 200 μM, etomoxir 40 μM, peptide YY (3-36) 25 μM, CNTF 25 μM, leptin 400 ng/ml); mean ± SEM; NS = non-significant
Text: as §5, §2, §3, §4, §6

SY5Y cells [4] = test: 125I-Aβ uptake by SY5Y cells (apoE-dependent); assay type: cell-based, human; conditions: RAP 1 μM added together with Aβ or the Aβ/apoE complex
Protocol: Preparation of ApoE and binding with ^125I-Aβ. ApoE was isolated from the conditioned media of human embryonic kidney (HEK-293) cells stably-transfected with human apoE (having the ε3 allele or the ε4 allele) cDNA (Tezapsidis et al., FASEB J. 17:1322-1324 (2003)). These preparations, while usually poor in lipid, are fully functional for uptake experiments. ApoE then was pre-incubated with ^125I-Aβ overnight at 37° C. (Aβ/ApoE: 1/50 w/w) as described (Tezapsidis et al., FASEB J. 17:1322-1324 (2003)).
Aβ-uptake by SY5Y cells. Human ^125I-Aβ (iodinated at Tyr-10, Amersham Biosciences, IM 294) uptake was measured following addition of 0.1 nM ^125I-Aβ40 (SEQ ID NO: 4) to confluent SY5Y cells (60,000 cpm/ml) in the presence or absence of 100 ng/ml or 400 ng/ml leptin also included in a 24 h pre-incubation period. ^125I-Aβ was either added alone or was previously incubated with apoε3. In controls, Receptor Associated Protein (“RAP”, 1 μM) was added together with Aβ or the Aβ/apoE complex. RAP is an antagonist of a number of lipoprotein receptors (LaDu et al., Neurochem Int. 39:427-34 (2001)). After 24 h, the media were collected and subjected to scintillation counting for γ-Iradiation (Kang et al., 2000. J Clin Invest. 106:1159-66 (2000)). The amount of radioactivity was measured in both the trichloroacetic acid (10%) TCA pellets (representing intact Aβ) and the corresponding supernatants (representing degraded Aβ). 96.5±8.2% (mean±s.e.m., n=4 experiments, triplicate determinations) of the radioactivity found in the medium could be recovered in the TCA pellet and represented intact or oligomeric Aβ (not shown), when Aβ was pre-incubated with apoE.
The amount of TCA-precipitable radioactivity in the soluble fraction of cell lysates was compared to that in the total lysates, the ratio of which was typically about 0.8 to about 0.9 (not shown), to further verify that radioactivity was reduced in the media as a reflection of Aβ uptake by the cells, rather than due to non-specific binding to the extracellular surface of membranes or oligomerization/aggregation of Aβ.
In panel (a), Aβ uptake was measured in SY5Y cells following their treatment at 0 ng/ml, 100 ng/ml or 400 ng/ml leptin. Uptake also was measured in cells previously transfected with antisense DNA for PS1 as described (Tezapsidis et al., FASEB J. 17:1322-1324(2003)) (black). Uptake is expressed as the percentage of that observed with Aβ pre-incubated with apoε3 (medium gray) in the absence of leptin (first set of columns). […] Leptin induced a dose-dependent increase in Aβ uptake with a preference for apoε3 (medium gray) over apoε4 (light gray). In panel (b), SY5Y cells were pre-treated with […] cholesterol (+Chol) or normal medium (−Chol). Then Aβ uptake was measured following its preincubation with apoε3 (ε3) or apoε4 (ε4) in the absence (black) or the presence (gray) of about 400 ng/ml leptin. Cells were more resistant to taking-up Aβ when loaded with cholesterol. […] In panel (c), SY5Y cells were transiently transfected with SREBP-1 or SREBP-2 cDNA or an empty vector (Control). Then Aβ was measured in the medium by ELISAs (Figueiredo-Pereira et al., J Neurochem. 72:1417-22 (1999)) following treatment with (+) or without (−) leptin. […] In panel (d), Aβ uptake was measured in SY5Y cells prepared as in panel (c). Uptake was performed using Aβ/apoε3 complexes.

[5] = 25 μM (equimolar concentrations), Table 1 cells
[6] = higher (150 μM) concentrations, not shown

Molecule | Aβ production / levels of Aβ in the media (in words) [1] | Neurons/SEAPP-APP Aβ (% control) [2] | Aβ production (in words) [1, 5] | Aβ production (in words) [1, 6] | Neuro2a/SEAP-APP Aβ(% control) [1] | SY5Y Aβ (% control) (SY5Y cells [3]) | Aβ uptake (SY5Y cells [4])
methyl-β-cyclodextrin | lowering Aβ | – | – | – | – | – | –
Peptide YY (3-36): gut-derived hormone affecting daily food intake | – | 98 ± 5, NS % control | neither peptide changed Aβ production in a statistically significant way | neither peptide changed Aβ production in a statistically significant way | 92 ± 9, NS % control | 96 ± 7, NS % control | –
CCOC(=O)[C@@]1(CCCCCCOc2ccc(Cl)cc2)CO1 [Etomoxir] | increased Aβ production | 158 ± 14 % control | – | – | 154 ± 14 % control | 142 ± 14 % control | –
CCCCCCCCCCCCCCOc1ccc(C(=O)O)o1 [TOFA, 5-(tetradecyloxy)-2-furancarboxylic acid] | mimicked | 35 ± 4 % control | – | – | 40 ± 15 % control | 58 ± 12 % control | –
C/C=C/C/C=C/CCC(=O)[C@H]1O[C@H]1C(N)=O [Cerulenin, cerulenin] | mimicked | 66 ± 5 % control | – | – | 52 ± 12 % control | 65 ± 9, NS % control | –
B1 | – | – | – | – | – | – | abolished uptake
B2 | – | 89 ± 12, NS % control | neither peptide changed Aβ production in a statistically significant way | neither peptide changed Aβ production in a statistically significant way | 95 ± 4, NS % control | 96 ± 8, NS % control | –
